Assay results taken from patent EP0547708A1, “Saccharin derivative proteolytic enzyme inhibitors” (STERLING WINTHROP INC., priority 1991, dated 1993).

What follows are molecules tested against T1, human leukocyte elastase (Homo sapiens, UniProt P08246) (assay: Inhibition of human leukocyte elastase in vitro (Ki* = koff/kon)). Settings: Ki* = koff/kon (rate of reactivation of the enzyme divided by rate of inactivation); koff and kon measured, Ki* then calculated.
T1 sequence (P08246 30-267): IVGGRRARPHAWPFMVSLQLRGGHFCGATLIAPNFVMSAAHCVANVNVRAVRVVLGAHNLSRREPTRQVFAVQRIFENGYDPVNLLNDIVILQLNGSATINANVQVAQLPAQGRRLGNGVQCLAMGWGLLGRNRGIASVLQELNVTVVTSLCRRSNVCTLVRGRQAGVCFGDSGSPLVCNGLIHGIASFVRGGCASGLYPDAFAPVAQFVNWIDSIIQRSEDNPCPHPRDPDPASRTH
Format: biochemical
Experimental: Ki*, which is defined as the rate of reactivation of the enzyme divided by the rate of inactivation of the enzyme (koff/kon), was therefore determined instead. The values of koff and kon were measured and Ki* was then calculated.
The value of kon was determined by measuring the enzyme activity of an aliquot of the enzyme as a function of the time after addition of the test compound (inhibitor). […] The value of kon was then obtained by the equation kon = kobs /[I] [formula] wherein [I] is the concentration of the inhibitor. The value of koff was similarly determined, and Ki* was then obtained by the equation Ki * = koff /kon [formula] .

For CC(C)c1cccc2c1C(=O)N(COC1=CC(=O)OC1)S2(=O)=O [Example 1A, 2-[(2,5-dihydro-5-oxo-3-furanyl)oxymethyl]-4-isopropylsaccharin], which Ki is on record?
Its Ki is 400 pM.

Which Ki does the source give for CC(C)c1cccc2c1C(=O)N(COc1cc(=O)oc3ccccc13)S2(=O)=O [Example 1B] here?
The Ki was 220 pM.

For CC(C)c1cccc2c1C(=O)N(COc1cc(=O)n(C)c3ccccc13)S2(=O)=O [Example 1C], which Ki is on record?
Its Ki is 700 pM.

How did the Ki turn out when Cc1cc(OCN2C(=O)c3c(C(C)C)cccc3S2(=O)=O)cc(=O)o1 [Example 1D] was run?
The Ki was 250 pM.

Which Ki does the source give for Cc1cc(OCN2C(=O)c3c(C(C)C)cccc3S2(=O)=O)c(C(=O)c2ccccc2)c(=O)o1 [Example 1E] here?
Its Ki is 35 pM.

For CC(C)c1cccc2c1C(=O)N(COc1cc(-c3ccccc3)oc(=O)c1)S2(=O)=O [Example 1F], which Ki is on record?
Its Ki is 220 pM.

COc1cc(C(C)C)c2c(c1)S(=O)(=O)N(COC1=C(Cc3ccccc3)C(=O)OC1(C)C)C2=O [Example 1O] was tested. Which Ki did it give?
Its Ki is 16 pM.

COc1cc(C(C)C)c2c(c1)S(=O)(=O)N(COC1=C(CN3CCOCC3)C(=O)OC1)C2=O [Example 1P] was tested. Which Ki did it give?
Its Ki is 41 pM.

How did the Ki turn out when COc1cc(C(C)C)c2c(c1)S(=O)(=O)N(COc1c(C(C)=O)c(=O)n(-c3ccccc3)c3ccccc13)C2=O [Example 3A, 2-(1-phenyl-3-acetylcarbostyryl-4-yl)oxymethyl-4-isopropyl-6-methoxysaccharin] was run?
Its Ki is 430 pM.

Which Ki does the source give for COc1cc(C(C)C)c2c(c1)S(=O)(=O)N(COc1c(C(C)=O)c(=O)n(C)c3ccccc13)C2=O [Example 3B, 2-(1-methyl-3-acetylcarbostyryl-4-yl)oxymethyl-4-isopropyl-6-methoxysaccharin] here?
Its Ki is 270 pM.

COc1cc(C(C)C)c2c(c1)S(=O)(=O)N(COC1=CC(=O)OC1(C)C)C2=O [Example 4E] was tested. Which Ki did it give?
The Ki was 93 pM.

How did the Ki turn out when COc1cc(C(C)C)c2c(c1)S(=O)(=O)N(COC1=C(Oc3ccccc3)C(=O)N(c3ccccc3)C1)C2=O [Example 4F] was run?
Its Ki is 60 pM.

How did the Ki turn out when COc1cc(C(C)C)c2c(c1)S(=O)(=O)N(COC1=C(N3CCCCC3)C(=O)N(c3ccccc3)C1)C2=O [Example 4G] was run?
Its Ki is 200 pM.

For COc1cc(C(C)C)c2c(c1)S(=O)(=O)N(COc1nc3ccccn3c(=O)c1CN1CCOCC1)C2=O [Example 5, 2-[3-(4-morpholinylmethyl)-4-oxo-4H-pyrido[1,2-a]pyrimidin-2-yl]oxymethyl-4-isopropyl-6-methoxysaccharin], which Ki is on record?
Its Ki is 230 pM.

For COc1cc(C(C)C)c2c(c1)S(=O)(=O)N(COC1=C(C)C(=O)C(C)=C(C)C1=O)C2=O [Example 6, 2-(3,5,6-trimethyl-1,4-dioxo-2,5-cyclohexadien-2-yl)oxymethyl-4-isopropyl-6-methoxysaccharin], which Ki is on record?
The Ki was 920 pM.

With COc1cc(C(C)C)c2c(c1)S(=O)(=O)N(COC1=C(C(C)=O)C(=O)c3ccoc3C1=O)C2=O [Example 7, 2-(5-acctyl-4,7-dihydro-4,7-dioxobenzofuran-6-yl)oxymethyl-4-isopropyl-6-methoxysaccharin] as the molecule, how does the Ki read?
Its Ki is 17000 pM.
